From ChEMBL document CHEMBL3097995, “NAD-based inhibitors with anticancer potential” (Bioorg Med Chem Lett, 2014)

How the values were obtained:
[1] = biological target: Inosine-5'-monophosphate dehydrogenase 1 (Homo sapiens, UniProt P20839); assay: Inhibition of IMPDH1 (unknown origin)
K562 = assay: Antiproliferative activity against human K562 cells; type: functional, cell-based
[2] = biological target: Inosine-5'-monophosphate dehydrogenase 2 (Homo sapiens, UniProt P12268); assay: Inhibition of IMPDH2 (unknown origin)
HT-29 = assay: Antiproliferative activity against human HT-29 cells; type: functional, cell-based
HeLa = assay: Antiproliferative activity against human HeLa cells; type: functional, cell-based
DU-145 = assay: Antiproliferative activity against human DU145 cells; type: functional, cell-based
Plasma = assay: Metabolic stability in human plasma; type: ADME, cell-free
HL-60 = assay: Antiproliferative activity against human HL60 cells; type: functional, cell-based
[3] = Binding affinity to human IMPDH
Homo sapiens [4] = species: Homo sapiens; assay: Selectivity ratio of Ki for IMPDH2 (unknown origin) to Ki for IMPDH1 (unknown origin)
Homo sapiens [5] = species: Homo sapiens; assay: Selectivity ratio of Ki for IMPDH1 (unknown origin) to Ki for IMPDH2 (unknown origin)
PC-3 = assay: Antiproliferative activity against human PC3 cells; type: functional, cell-based
[6] = Drug degradation in human plasma after 24 hrs; type: ADME, cell-free; conditions: read-out: Drug degradation

Chain of Inosine-5'-monophosphate dehydrogenase 1 (P20839 whole entry): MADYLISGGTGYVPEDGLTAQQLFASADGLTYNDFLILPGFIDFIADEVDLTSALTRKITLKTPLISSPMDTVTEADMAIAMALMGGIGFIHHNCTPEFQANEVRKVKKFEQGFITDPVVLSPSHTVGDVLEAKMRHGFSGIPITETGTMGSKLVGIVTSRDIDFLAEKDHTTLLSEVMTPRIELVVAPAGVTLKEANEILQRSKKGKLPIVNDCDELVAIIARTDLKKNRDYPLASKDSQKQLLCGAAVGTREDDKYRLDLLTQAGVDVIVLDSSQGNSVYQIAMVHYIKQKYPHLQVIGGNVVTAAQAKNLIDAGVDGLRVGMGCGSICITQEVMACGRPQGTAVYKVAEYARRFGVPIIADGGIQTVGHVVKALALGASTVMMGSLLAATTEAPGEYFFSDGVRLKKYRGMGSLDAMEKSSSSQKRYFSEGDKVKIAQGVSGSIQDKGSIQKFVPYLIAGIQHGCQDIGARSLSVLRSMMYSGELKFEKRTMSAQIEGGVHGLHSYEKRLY

| Ki [1] [nM] | IC50 (K562) [nM] | Ki [2] [nM] | IC50 (HT-29) [nM] | IC50 (HeLa) [nM] | IC50 (DU-145) [nM] | Stability (Plasma) | IC50 (HL-60) [nM] | Ki [3] [nM] | Ratio Ki (Homo sapiens [4]) | Ratio Ki (Homo sapiens [5]) | IC50 (PC-3) [nM] | metabolised at 24 h [6] [%] | SMILES |
| --- | --- | --- | --- | --- | --- | --- | --- | --- | --- | --- | --- | --- | --- |
| 39 | 48000 | 186 | > 100000 | > 100000 | – | – | – | – | – | – | – | – | COc1c(C)c2c(c(O)c1CCOP(=O)(O)CP(=O)(O)OC[C@H]1O[C@@H](n3c(Br)nc4c(N)ncnc43)[C@H](O)[C@@H]1O)C(=O)OC2 |
| 2550 | 1600 | 231 | – | – | 1500 | Unstable | 2100 | – | – | – | – | – | COc1c(C)c2c(c(O)c1C/C=C(\C)CCC(=O)OC[C@@H]1O[C@H](n3cnc4c(N)ncnc43)[C@@H](O)[C@H]1O)C(=O)OC2 |
| – | – | – | – | – | – | – | – | 10 | – | – | – | – | COc1c(C)c2c(c(O)c1C/C=C(\C)CCC(=O)O)C(=O)OC2 [MYCOPHENOLIC ACID] |
| 13 | 1000 | 15 | 8700 | 4500 | – | – | – | – | – | – | – | – | COc1c(C)c2c(c(O)c1CCOP(=O)(O)CP(=O)(O)OC[C@H]1O[C@@H](n3cnc4c(N)nc(C(F)(F)F)nc43)[C@H](O)[C@@H]1O)C(=O)OC2 |
| 82 | 1500 | 56 | 46000 | 12000 | – | – | – | – | – | – | – | – | COc1c(C)c2c(c(O)c1CCOP(=O)(O)CP(=O)(O)OC[C@H]1O[C@@H](n3cnc4c(N)nc(-c5cccs5)nc43)[C@H](O)[C@@H]1O)C(=O)OC2 |
| 0.6 | 400 | 14 | 2000 | 1000 | – | – | – | – | 23 | – | – | – | COc1c(C)c2c(c(O)c1CCOP(=O)(O)CP(=O)(O)OC[C@H]1O[C@@H](n3cnc4c(N)nc(-c5ccncc5)nc43)[C@H](O)[C@@H]1O)C(=O)OC2 |
| – | – | – | – | – | – | Unstable | – | – | – | – | – | – | COc1c(C)c2c(c(O)c1C/C=C(\C)CCC(=O)OCCN1CCOCC1)C(=O)OC2 [MYCOPHENOLATE MOFETIL] |
| 491 | 2500 | 165 | > 100000 | 25000 | – | – | – | – | – | 3 | – | – | COc1c(C)c2c(c(O)c1CCOP(=O)(O)CP(=O)(O)OC[C@H]1O[C@@H](n3cnc4c(N)cccc43)[C@H](O)[C@@H]1O)C(=O)OC2 |
| 70 | 3000 | 44 | > 100000 | 11000 | – | – | – | – | – | – | – | – | COc1c(C)c2c(c(O)c1CCOP(=O)(O)CP(=O)(O)OC[C@H]1O[C@@H](n3cnc4c(N)nc(COCc5ccccc5)nc43)[C@H](O)[C@@H]1O)C(=O)OC2 |
| 876 | > 100000 | 749 | > 100000 | > 100000 | – | – | – | – | – | – | – | – | COc1c(C)c2c(c(O)c1CCOP(=O)(O)CP(=O)(O)OC[C@H]1O[C@@H](n3cnc4c([N+](=O)[O-])cccc43)[C@H](O)[C@@H]1O)C(=O)OC2 |
| 163 | 500 | 102 | – | – | 5800 | – | 9300 | – | – | – | 20000 | 20 | COc1c(C)c2c(c(O)c1C/C=C(\C)CCC(=O)OC[C@H]1O[C@@H](n3cnc4c(N)ncnc43)[C@H](O)[C@@H]1O)C(=O)OC2 |
| 2810 | > 100000 | 2790 | – | – | > 100000 | – | > 100000 | – | – | – | > 100000 | – | COc1c(C)c2c(c(O)c1C/C=C(\C)CCC(=O)N[C@@H](CO)C(=O)O)C(=O)OC2 |
| 63 | 800 | 37 | 9800 | 3000 | – | – | – | – | – | – | – | – | COc1c(C)c2c(c(O)c1CCOP(=O)(O)CP(=O)(O)OC[C@H]1O[C@@H](n3cnc4c(N)nc(-c5ccco5)nc43)[C@H](O)[C@@H]1O)C(=O)OC2 |
